Measured values published in patent publication US5232924A, “Heterocyclic compound having serotonine 2-receptor antagonistic activity” (Daiichi Pharmaceutical Co., Ltd., priority 1989, dated 1993).

Assays:
[1] = test system: Mongrel dogs; assay: Acute cardiac infarction model: LDA ligature and reperfusion in dogs; assay type: in vivo; conditions: dog, hydrochloride 1 mg/kg/hr intravenous drip, versus control group
Description: Mongrel dogs (body weight: 8 to 20 kg) under anesthesia were ventilated artificially and underwent a left thracotomy. […] A polyethylene cannula was inserted into the femoral artery, and the blood pressure and heart rate were recorded A cannula was inserted into the […] of a drug and also into the carotid artery from which a blood sample was to be taken. After stabilization period of the test preparation, LDA was ligated with a clamp. After 2 hours from the ligature, the clamp was released for reperfusion. After observation for the following 4 hours, the heart was excised. […] Then, the heart was washed and sliced at 1 cm intervals from the apex in the direction vertical to the longer axis. Each slice at the left ventricle was divided into a part which was in risk of cardiac infarction indicated by Evans' Blue stain (hereinafter referred to as risk area) and a normal area, and each area was weighed. The weight of the left ventricle (the sum of the risk area and the normal area) and that of the risk area of each slice were individually added up to obtain the weight of the whole left ventricle and the total weight of the risk area. Further, of each slice, the area of the risk area which was not stained with Evans' Blue and that of a cardiac infarction area within the risk area which remained white, i.e., which was stained neither in blue with Evans' Blue nor in red with triphenyltetrazolium chloride, were measured to obtain a ratio of cardiac infarction part to the whole left ventricle (infarction size). […] The experiment was conducted for the following groups.

[2] = molecular target: T1, Serotonin 2-Receptor (Rattus norvegicus, UniProt P14842); assay: Binding activity to serotonin 2-receptor, 3H-Ketanserin, rat frontal cortex membrane preparation; conditions: calculated from the 50% inhibitory concentration, hydrochloride, read-out: dissociation constant for serotonin 2-receptor
T1 construct: from tissue; host or cells: intact anesthetized SD-SLC male rat (vascular response)
T1 sequence (P14842 whole entry): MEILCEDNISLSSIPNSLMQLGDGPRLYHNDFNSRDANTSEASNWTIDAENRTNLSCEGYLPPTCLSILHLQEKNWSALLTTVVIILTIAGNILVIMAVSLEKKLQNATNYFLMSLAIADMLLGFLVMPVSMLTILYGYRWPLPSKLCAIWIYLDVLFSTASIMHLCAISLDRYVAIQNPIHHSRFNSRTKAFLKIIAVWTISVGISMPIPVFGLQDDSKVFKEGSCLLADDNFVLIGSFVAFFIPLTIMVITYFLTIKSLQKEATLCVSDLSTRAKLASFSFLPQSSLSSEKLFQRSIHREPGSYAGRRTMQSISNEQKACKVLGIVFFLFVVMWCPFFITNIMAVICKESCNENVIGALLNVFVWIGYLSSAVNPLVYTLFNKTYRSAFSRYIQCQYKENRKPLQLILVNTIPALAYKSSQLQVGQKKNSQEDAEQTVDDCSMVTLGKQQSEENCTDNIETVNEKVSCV
Description: A male SD rat was decapitated under anesthesia, and the frontal cortex was removed to obtain a membrane preparation. ^3 H-Ketanserin and Methysergide were used as a labelled ligand and a non-specific binding reagent, respectively. These reagents and a test compound thereof were dissolved in a 5% methanol tris-buffer solution. After incubation, this solution was filtered by suction through a GF/B glass filter. Radioactivity of ^3 H-Ketanserin collected on the filter was measured with a liquid scintillation counter. A Scatchard plot was prepared from the resulting radioactivity values, and a dissociation constant of serotonin 2-receptor and a receptor density of the membrane preparation were obtained. Further, from the receptor-binding inhibition curve of the compound is obtained a 50% inhibitory concentration, and a dissociation constant indicative of the binding affinity to serotonin 2-receptor was calculated.

[3] = test system: Mongrel dogs; assay: Angina pectoris model: partial LDA occlusion with cyclic coronary flow reduction in dogs; assay type: in vivo; conditions: dog, maleate 0.1 mg/kg i.v., compared with before administration
Description: Mongrel dogs (body weight: 8 to 20 kg) under anesthesia with pentobarbital (30 mg/kg, i.v.) were ventilated artificially and underwent a left thoracotomy. LDA was separated from connected tissues. A silicone tube for partial occlusion was placed around the LDA, and a probe for blood flow rate measurement was fixed in the neighborhood. The blood flow rate was measured with a pulse Doppler blood flow meter. A cannula was inserted into a branch distal to the occlusion site of the left coronary artery, and the coronary blood pressure was measured. A polyethylene cannula was inserted into the femoral artery, and the systemic blood pressure and heart rate were recorded. A cannula was inserted to the femoral vein for administration of a drug.
The effect of the drug was expressed in terms of frequency of the periodic reduction of blood flow rate.

**Q.** Which results are given for `O=C(c1ccc(F)cc1)C1CCN(CCn2c(=O)nc3n(c2=O)CCCC3)CC1` [Example 1, 3-[2-[4-(4-Fluorobenzoyl)piperidin-1-yl]ethyl]-6,7,8,9-tetrahydro-2H-pyrido[1,2-a]-1,3,5-triazine-2,4(3H)-dione]?
**A.** effect on myocardial infarction size (in words) [1]: significantly reduced; Ki [2]: 15 nM; effect on frequency of the cyclic coronary flow reduction (in words) [3]: significantly reduces
